Series [1] in a line: Octanol/water partition coefficient. It counts as physicochemical. The conditions noted are these: in the range of pH 3 to 9. The text has this: However, the octanol/water partition coefficient of compound A in the range of pH 3 to 9 is less than 0.05, which greatly differs from the partition coefficient (100 to 1000) of a compound generally having high membrane permeability. Compound A tends to be difficult to permeate through a membrane. Thus, it is difficult to provide a transdermal preparation comprising compound A or a salt thereof and having transdermal absorbability sufficient to exert a pharmacological effect. A transdermal preparation of compound A or a salt thereof is not known.

The test system of series [2] is fungi, azole antifungal agent-resistant fungi. The conditions noted are these: Patent Document 1; cited from earlier work.

In the case of `N=C(N)c1ccc(OCCCC2CCN(CCCOc3ccc(C(=N)N)cc3)CC2)cc1` [compound A, 4-{3-[4-(3-{4-[Amino(imino)methyl]phenoxy}propyl)-1-piperidinyl]propoxy}benzamidine], in series [1], the octanol/water partition coefficient result is given as “less than 0.05”. Also, the “antifungal activity (in words)” value in series [2] is listed as “strong antifungal activity”.

Values taken from patent US20130197036A1, “TRANSDERMAL ABSORPTION PREPARATION” (priority 2010, published 2013).
